Laboratory results taken from paper PMC3914206.

How the values were obtained:
Assay type in all cases: binding
Parameters in all cases: KINOMEscan: ABL1(F317L)-phosphorylated / KINOMEscan: ABL1(H396P)-nonphosphorylated / KINOMEscan: ABL1(H396P)-phosphorylated / KINOMEscan: ABL1(M351T)-phosphorylated / KINOMEscan: ABL1(T315I)-phosphorylated / KINOMEscan: ABL1-nonphosphorylated / KINOMEscan: ABL1-phosphorylated / KINOMEscan: ACVR2A / KINOMEscan: ACVR2B / KINOMEscan: ADCK3 / KINOMEscan: ADCK4 / KINOMEscan: AKT1 / KINOMEscan: AKT3 / KINOMEscan: ALK / KINOMEscan: ARK5 / KINOMEscan: AURKA / KINOMEscan: AURKC / KINOMEscan: BIKE / KINOMEscan: BMPR1A / KINOMEscan: BMPR1B / KINOMEscan: BMX / KINOMEscan: BRK / KINOMEscan: BRSK1 / KINOMEscan: BRSK2 / KINOMEscan: CAMK1 / KINOMEscan: CAMK1D / KINOMEscan: CAMK1G / KINOMEscan: CAMK2A / KINOMEscan: CAMK2B / KINOMEscan: AAK1 / KINOMEscan: CAMK2D / KINOMEscan: CAMK2G / KINOMEscan: ABL1(F317I)-nonphosphorylated / KINOMEscan: ABL1(F317I)-phosphorylated / KINOMEscan: ABL1(F317L)-nonphosphorylated: unit: % Ctrl
Conditions in all cases: Compound Concentration 10 µM
panel of 442 kinases [1] = target: T1, panel of 442 kinases (Homo sapiens, UniProt P00519, T315I)
T1 construct: purchased KINOMEscan
Text: (§1) We assessed the selectivity of members of this scaffold using the KINOMEscan methodology across a near comprehensive panel of 442 kinases [[18,27]].

panel of 442 kinases [2] = target: T2, panel of 442 kinases (Homo sapiens, UniProt Q2M2I8)
T2 construct: purchased KINOMEscan
T2 sequence (Q2M2I8 whole entry): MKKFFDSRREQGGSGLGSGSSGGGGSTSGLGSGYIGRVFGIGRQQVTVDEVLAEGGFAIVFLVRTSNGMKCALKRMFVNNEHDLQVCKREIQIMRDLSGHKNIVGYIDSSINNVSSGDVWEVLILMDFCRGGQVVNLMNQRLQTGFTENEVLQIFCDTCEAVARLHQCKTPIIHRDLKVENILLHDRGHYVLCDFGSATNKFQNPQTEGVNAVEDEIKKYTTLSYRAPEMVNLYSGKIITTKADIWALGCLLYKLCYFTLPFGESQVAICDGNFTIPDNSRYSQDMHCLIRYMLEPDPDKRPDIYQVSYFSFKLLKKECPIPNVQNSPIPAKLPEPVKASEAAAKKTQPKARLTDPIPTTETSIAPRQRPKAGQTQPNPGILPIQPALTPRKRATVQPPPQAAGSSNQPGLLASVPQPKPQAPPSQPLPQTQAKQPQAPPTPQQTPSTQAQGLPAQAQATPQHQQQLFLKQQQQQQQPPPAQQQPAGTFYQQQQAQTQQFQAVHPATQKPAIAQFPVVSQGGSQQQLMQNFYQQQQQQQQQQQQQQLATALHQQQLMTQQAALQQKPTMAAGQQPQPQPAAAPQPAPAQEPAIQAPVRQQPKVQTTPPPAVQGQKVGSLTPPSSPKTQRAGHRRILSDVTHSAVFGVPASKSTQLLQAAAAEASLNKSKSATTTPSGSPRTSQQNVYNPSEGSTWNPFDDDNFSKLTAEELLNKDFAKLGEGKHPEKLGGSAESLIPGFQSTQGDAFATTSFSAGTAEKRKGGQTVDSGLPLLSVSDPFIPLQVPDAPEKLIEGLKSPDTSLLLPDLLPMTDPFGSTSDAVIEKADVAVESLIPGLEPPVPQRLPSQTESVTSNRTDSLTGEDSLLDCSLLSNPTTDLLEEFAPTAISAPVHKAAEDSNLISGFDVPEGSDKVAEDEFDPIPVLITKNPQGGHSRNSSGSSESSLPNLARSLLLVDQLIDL
Text: as §1

panel of 442 kinases [3] = target: T3, panel of 442 kinases (Homo sapiens, UniProt Q15746)
T3 construct: purchased KINOMEscan
T3 sequence (Q15746 whole entry): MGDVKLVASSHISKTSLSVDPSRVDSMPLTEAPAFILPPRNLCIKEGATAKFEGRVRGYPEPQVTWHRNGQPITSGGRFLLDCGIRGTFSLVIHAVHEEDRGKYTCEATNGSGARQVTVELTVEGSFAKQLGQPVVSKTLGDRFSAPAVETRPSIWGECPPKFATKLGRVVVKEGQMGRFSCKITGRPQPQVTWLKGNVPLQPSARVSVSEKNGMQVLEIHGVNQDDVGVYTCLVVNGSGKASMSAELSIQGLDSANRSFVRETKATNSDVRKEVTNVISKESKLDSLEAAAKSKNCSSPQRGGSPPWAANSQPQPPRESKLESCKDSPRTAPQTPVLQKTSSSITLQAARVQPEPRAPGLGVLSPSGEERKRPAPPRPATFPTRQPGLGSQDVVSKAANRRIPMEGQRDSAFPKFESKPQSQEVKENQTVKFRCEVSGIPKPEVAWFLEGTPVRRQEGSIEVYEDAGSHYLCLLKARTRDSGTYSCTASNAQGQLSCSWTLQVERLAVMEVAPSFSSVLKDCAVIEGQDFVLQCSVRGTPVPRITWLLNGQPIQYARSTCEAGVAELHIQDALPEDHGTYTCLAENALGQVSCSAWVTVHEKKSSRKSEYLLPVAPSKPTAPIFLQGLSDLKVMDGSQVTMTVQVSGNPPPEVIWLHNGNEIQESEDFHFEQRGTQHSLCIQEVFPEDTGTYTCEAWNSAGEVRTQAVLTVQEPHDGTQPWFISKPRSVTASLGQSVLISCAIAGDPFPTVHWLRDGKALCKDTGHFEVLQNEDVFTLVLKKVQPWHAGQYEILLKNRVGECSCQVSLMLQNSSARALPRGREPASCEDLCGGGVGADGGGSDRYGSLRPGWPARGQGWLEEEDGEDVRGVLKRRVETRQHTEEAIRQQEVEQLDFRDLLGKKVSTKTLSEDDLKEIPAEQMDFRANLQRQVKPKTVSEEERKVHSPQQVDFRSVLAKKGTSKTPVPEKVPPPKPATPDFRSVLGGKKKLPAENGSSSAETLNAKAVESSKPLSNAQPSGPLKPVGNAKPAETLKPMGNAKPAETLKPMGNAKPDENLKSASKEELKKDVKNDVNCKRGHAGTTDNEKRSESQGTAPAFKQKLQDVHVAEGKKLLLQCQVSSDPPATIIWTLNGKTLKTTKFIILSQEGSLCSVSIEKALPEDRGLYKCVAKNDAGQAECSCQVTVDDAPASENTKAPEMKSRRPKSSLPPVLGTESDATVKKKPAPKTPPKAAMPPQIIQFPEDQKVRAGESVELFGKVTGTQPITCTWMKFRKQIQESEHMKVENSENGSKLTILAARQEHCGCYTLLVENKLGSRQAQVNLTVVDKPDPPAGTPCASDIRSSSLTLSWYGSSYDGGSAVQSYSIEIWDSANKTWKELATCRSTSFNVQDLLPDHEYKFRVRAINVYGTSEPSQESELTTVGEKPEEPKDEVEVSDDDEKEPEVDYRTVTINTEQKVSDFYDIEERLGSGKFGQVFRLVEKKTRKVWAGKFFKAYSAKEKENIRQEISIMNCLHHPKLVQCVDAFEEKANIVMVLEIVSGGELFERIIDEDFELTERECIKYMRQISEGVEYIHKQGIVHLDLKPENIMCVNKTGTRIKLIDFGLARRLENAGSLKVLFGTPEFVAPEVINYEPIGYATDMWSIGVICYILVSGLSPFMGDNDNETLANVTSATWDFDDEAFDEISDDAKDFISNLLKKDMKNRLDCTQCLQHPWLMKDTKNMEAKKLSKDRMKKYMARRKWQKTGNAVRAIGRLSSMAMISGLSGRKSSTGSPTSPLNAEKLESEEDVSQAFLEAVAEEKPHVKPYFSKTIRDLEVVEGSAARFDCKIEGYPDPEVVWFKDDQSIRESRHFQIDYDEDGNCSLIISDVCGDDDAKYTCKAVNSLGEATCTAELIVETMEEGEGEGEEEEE
Text: as §1

panel of 442 kinases [4] = target: T4, panel of 442 kinases (Homo sapiens, UniProt P31749)
T4 construct: purchased KINOMEscan
T4 sequence (P31749 whole entry): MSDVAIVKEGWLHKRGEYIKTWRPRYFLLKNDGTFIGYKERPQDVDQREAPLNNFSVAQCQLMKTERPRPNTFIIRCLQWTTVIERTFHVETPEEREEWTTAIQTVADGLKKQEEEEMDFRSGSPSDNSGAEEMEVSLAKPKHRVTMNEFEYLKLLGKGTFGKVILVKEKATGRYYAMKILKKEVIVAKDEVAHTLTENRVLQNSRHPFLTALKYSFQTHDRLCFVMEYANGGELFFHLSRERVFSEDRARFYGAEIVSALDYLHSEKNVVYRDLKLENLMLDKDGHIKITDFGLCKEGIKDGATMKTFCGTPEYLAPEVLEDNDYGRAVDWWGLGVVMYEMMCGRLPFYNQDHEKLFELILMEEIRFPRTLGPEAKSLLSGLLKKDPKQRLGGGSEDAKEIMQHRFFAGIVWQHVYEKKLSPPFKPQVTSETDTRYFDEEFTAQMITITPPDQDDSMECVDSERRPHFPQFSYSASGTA
Text: as §1

SMILES | KINOMEscan: ABL1(T315I)-nonphosphorylated (panel of 442 kinases [1]) | KINOMEscan: ABL1(T315I)-phosphorylated (panel of 442 kinases [1]) | KINOMEscan: AAK1 (panel of 442 kinases [2]) | KINOMEscan: MYLK (panel of 442 kinases [3]) | KINOMEscan: AKT1 (panel of 442 kinases [4])
COc1cc(C(=O)N2CCC(N3CCN(C)CC3)CC2)ccc1Nc1ncc2c(n1)N(C)c1ccccc1C(=O)N2C [15 (LRRK2-IN-1)] | 100 | 58 | 84 | 8.7 | 79
COc1cc(C(=O)N2CCC(N3CCN(C)CC3)CC2)ccc1Nc1ncc2c(n1)N1CCc3cccc(c31)C(=O)N2C [Compound 24] | – | 100 | – | 2.9 | 90
COc1cc(C(=O)N2CCC(N3CCN(C)CC3)CC2)ccc1Nc1ncc2c(n1)N(C1CCCC1)c1ccccc1C(=O)N2C [Compound 25, 11-cyclopentyl-2-((2-methoxy-4-(4-(4-methylpiperazin-1-yl)piperidine-1-carbonyl)phenyl)amino)-5-methyl-5H-benzo[e]pyrimido[5,4-b][1,4]diazepin-6(11H)-one] | 100 | 100 | 89 | 73 | 100
CCOc1cc(C(=O)N2CCC(N3CCN(C)CC3)CC2)ccc1Nc1ncc2c(n1)N(C1CCCC1)c1ccccc1C(=O)N2C [Compound 26] | 95 | 92 | 100 | 98 | 100
